Tests used:
PKD isoforms = test: Radiometric PKD kinase assay, summary statement for PKD isoforms; assay type: biochemical, human; conditions: approximate, all PKD isoforms; read-out: concentration that blocked 50% of PKD activity
Description: Recombinant human PKD1, 2, or 3 proteins were incubated in a mixture containing a peptide substrate derived from a PKD substrate, HDAC-5, and 10 different concentrations of the two compounds.

PC3 cells = test: Wound healing assay (cell migration); assay type: cell-based; conditions: PC3, 30 µM, 22 h after wounding; control completely closed
Description: (§1) A.1-NA- PP1 blocked prostate cancer cell migration. PC3 cells were grown to confluence in 6-well plates. Monolayer was wounded and imaged immediately (0 h). […] Percentage wound healing was calculated as the percent of healed wound area as compared to the original wound. […] After 20 h, noninvasive cells were removed and invasive cells were fixed in 100% methanol, stained in 0.4% hematoxylin solution, and photographed. The number of cells that invaded the Matrigel matrix was determined by cell counts in 6 fields relative to the number of cells that migrated through the control insert. Percentage invasion was calculated as the percent of the cells invaded through Matrigel inserts vs. the total cells migrated through the control inserts. C. […] DU145 cells were infected with null, PKD1, and PKD3 adenoviruses (Adv-null, Adv-PKD1, and Adv-PKD3) at 100 MOI. After 24 h, cells were replated in control and Matrigel inserts, and a Matrigel invasion assay was conducted as described above. The overexpression of PKD1 and PKD3 was confirmed by Western blotting analysis (images below the graphs). […]
PC3 or DU145 cells were grown to confluence in 6-well plates. […] The wound gap was measured, and % wound healing was calculated. The average % wound healing was determined based on at least 6 measurements of the wound gap.

DU145 cells = test: Matrigel invasion assay; assay type: cell-based; conditions: Homo sapiens, DU-145, 20 h, read-out: inhibition of cell invasion compared with control
Description: as §1, with “MOI.” for “MOI. After 24 h, cells were replated in control and Matrigel inserts, and a Matrigel invasion assay was conducted as described above. The overexpression of PKD1 and PKD3 was confirmed by Western blotting analysis (images below the graphs).”
DU145 cells (4.0×10^4 cells/ml) in RPMI containing 0.1% fetal bovine serum (FBS) were seeded into the top chamber of BioCoat control inserts (pore size 8 µm) or BioCoat Matrigel invasion inserts with Matrigel-coated filters (BD Pharmingen). […] After staining, cells were counted under a microscope (200× magnification). The percentage invasion was determined by cell counts in […] of the number of cells that invaded the Matrigel matrix relative to the number of cells that migrated through the control insert.

[1] = tested on: DU145 cells infected with Adv-PKD1 or Adv-PKD3; assay type: cell-based
Description: After 20 h, noninvasive cells were removed and invasive cells were fixed in 100% methanol, stained in 0.4% hematoxylin solution, and photographed. The number of cells that invaded the Matrigel matrix was determined by cell counts in 6 fields relative to the number of cells that migrated through the control insert. Percentage invasion was calculated as the percent of the cells invaded through Matrigel inserts vs. the total cells migrated through the control inserts. […] DU145 cells were infected with null, PKD1, and PKD3 adenoviruses (Adv-null, Adv-PKD1, and Adv-PKD3) at 100 MOI. After 24 h, cells were replated in control and Matrigel inserts, and a Matrigel invasion assay was conducted as described above. […] All the above experiments were repeated at least three times and data from a representative experiment are shown.

[2] = tested on: DU145 cells infected with Adv-PKD1 or Adv-PKD3; assay type: cell-based; remark: listed apart in the source
Description: DU145 cells were infected with null, PKD1, and PKD3 adenoviruses (Adv-null, Adv-PKD1, and Adv-PKD3) at 100 MOI. […] The number of cells that migrated was determined by cell counts in 6 fields. Percentage migration was calculated as the percent of the Adv-null treated with vehicle DMSO (set to 100%). The experiment was repeated three times and data from a representative experiment are shown.

CC(C)(C)n1nc(-c2cccc3ccccc23)c2c(N)ncnc21 [Compound 1-NA-PP1, 1-(t-Butyl)-3-(naphthalen-1-yl)-1H-pyrazolo[3,4-d]pyrimidin-4-amine]
IC50 (PKD isoforms): ~100 nM
wounded area remaining open (PC3 cells): 88.6%
inhibition at 30 µM (DU145 cells): > 60%
effect of PKD1 or PKD3 overexpression on inhibition of cell invasion [1]: completely reversed
effect of PKD1 or PKD3 overexpression on inhibition of cell migration [2]: did not affect
